Measured values reported in patent US9896457B2, “Microbial product having antifungal activity” (OP BIO FACTORY CO., LTD., priority 2013, dated 2018).

Columns and labels:
[1] = test system: Aspergillus spp.; assay: Antifungal agent sensitivity test, MIC by trace liquid dilution method (yeast-like fungi FP 'Eiken'); format: cell-based; settings: numeric MIC (μg/mL) only in FIG. 2
Experimental: (§1) Minimum inhibitory concentration (MIC) was measured by the trace liquid dilution method. The measurement was performed using yeast-like fungi FP ‘Eiken’ (Eiken Chemical Co., Ltd.) and according to the manual of the product.

[2] = test system: Candida spp.; assay: as above; format: cell-based; settings: numeric MIC (μg/mL) only in FIG. 2
Experimental: as §1

Structure (SMILES): CC=C(Cc1ccccc1)C12CC(O)CCN1O2 (centres unmarked)
- antifungal activity (MIC), result in words [1]: good activity
- antifungal activity (MIC), result in words [2]: good activity
